Laboratory results as given in patent US10385065B2, “Antibacterial compounds” (priority 2014, dated 2019).
≈ marks a conversion by molar mass, not a printed value. Read-outs that look alike come from different tables or passages of the source.

What was measured:
Format in all cases: cell-based
[1] = system: Escherichia coli ATCC 25922; assay: MIC, broth microdilution, E. coli ATCC 25922; conditions: ATCC25922, Table 1, wild type strain
[2] = system: Enterococcus faecium ATCC 19434; assay: MIC, E. faecium ATCC 19434; conditions: ATCC19434, Table 2
[3] = system: Haemophilus influenzae ATCC 49247; assay: MIC, H. influenzae ATCC 49247; conditions: ATCC49247, Table 4
[4] = system: Staphylococcus aureus ATCC 29213; assay: MIC, broth microdilution, S. aureus ATCC 29213
[5] = ATCC29213, Table 1, wild type strain, read-out: MIC S. aureus ATCC 29213
[6] = ATCC 29213 / MSSA, Table 2, read-out: MIC S. aureus (MSSA) ATCC 29213 CLSI control strain

SMILES	MIC [1] [µg/mL]	MIC [2] [µg/mL]	MIC [3] [µg/mL]	MIC [4, 5] [µg/mL]	MIC [4, 6] [µg/mL]
CCn1c(=O)c2ncoc2c2cc(F)c(-c3ccc(N)nc3)c(C)c21 [Compound 106, 7-(6-amino-3-pyridyl)-5-ethyl-8-fluoro-6-methyl-oxazolo[4,5-c]quinolin-4-one]	> 100	> 100	10 to 100 (≈ 29.6 to 296 µM)	10 to 100 (≈ 29.6 to 296 µM)	10 to 100 (≈ 29.6 to 296 µM)
CNC(=O)c1ccc(-c2cc3c(cc2F)c2ocnc2c(=O)n3C2CC2)cc1F [Compound 67, 4-(5-cyclopropyl-8-fluoro-4-oxo-oxazolo[4,5-c]quinolin-7-yl)-2-fluoro-N-methyl-benzamide]	> 100	> 100	10 to 100 (≈ 25.3 to 253 µM)	1 to 10 (≈ 2.53 to 25.3 µM)	1 to 10 (≈ 2.53 to 25.3 µM)
CCn1c(=O)c2ncoc2c2cc(F)c(-c3cc(F)c(N)cc3F)c(C)c21 [Compound 104, 7-(4-amino-2,5-difluoro-phenyl)-5-ethyl-8-fluoro-6-methyl-oxazolo[4,5-c]quinolin-4-one]	> 100	10 to 100 (≈ 26.8 to 268 µM)	10 to 100 (≈ 26.8 to 268 µM)	1 to 10 (≈ 2.68 to 26.8 µM)	1 to 10 (≈ 2.68 to 26.8 µM)
Cc1nc2c(=O)n(C3CC3)c3c(C)c(-c4ccc(N)c(F)c4)ccc3c2o1 [Compound 13]	> 100	> 100	> 100	< 1	< 1
Nc1cc(-c2nc3c(cc2F)c2ocnc2c(=O)n3C2CC2)c(F)cc1F [Compound 85, 7-(5-amino-2,4-difluorophenyl)-5-cyclopropyl-8-fluoro-oxazolo[4,5-c]1,8-naphthyridin-4-one]	10 to 100 (≈ 26.9 to 269 µM)	> 100	1 to 10 (≈ 2.69 to 26.9 µM)	10 to 100 (≈ 26.9 to 269 µM)	10 to 100 (≈ 26.9 to 269 µM)
NC1C2CN(c3nc4c(cc3F)c3ocnc3c(=O)n4C3CC3)CC12 (stereo not drawn) [Compound 82, 7-(6-amino-3-azabicyclo[3.1.0]hexan-3-yl)-5-cyclopropyl-8-fluoro-oxazolo[4,5-c][1,8]naphthyridin-4-one]	1 to 10 (≈ 2.93 to 29.3 µM)	> 100	10 to 100 (≈ 29.3 to 293 µM)	10 to 100 (≈ 29.3 to 293 µM)	10 to 100 (≈ 29.3 to 293 µM)
Cc1c(-c2cnc(N)nc2)ccc2c3oc(CN)nc3c(=O)n(C3CC3)c12 [Compound 103, 2-(aminomethyl)-7-(2-aminopyrimidin-5-yl)-5-cyclopropyl-6-methyl-oxazolo[4,5-c]quinolin-4-one]	1 to 10 (≈ 2.76 to 27.6 µM)	10 to 100 (≈ 27.6 to 276 µM)	< 1	1 to 10 (≈ 2.76 to 27.6 µM)	1 to 10 (≈ 2.76 to 27.6 µM)
CC(=O)c1ccc(-c2ccc3c4ocnc4c(=O)n(C4CC4)c3c2C)nc1 [Compound 42, 7-(5-acetylpyridin-2-yl)-5-cyclopropyl-6-methyl-oxazolo[4,5-c]quinolin-4-one]	> 100	> 100	> 100	10 to 100 (≈ 27.8 to 278 µM)	10 to 100 (≈ 27.8 to 278 µM)
Cc1c(-c2cc(F)c(C(=O)O)cc2F)ccc2c3ocnc3c(=O)n(C3CC3)c12 [Compound 47, 4-{5-cyclopropyl-6-methyl-4-oxo-oxazolo[4,5-c]quinolin-7-yl}-2,5-difluorobenzoic acid]	> 100	> 100	> 100	10 to 100 (≈ 25.2 to 252 µM)	10 to 100 (≈ 25.2 to 252 µM)
Cc1nc2c(=O)n(C3CC3)c3cc(-c4ccncc4F)c(F)cc3c2o1 [Compound 74, 5-cyclopropyl-8-fluoro-7-(3-fluoro-4-pyridyl)-2-methyl-oxazolo[4,5-c]quinolin-4-one]	10 to 100 (≈ 28.3 to 283 µM)	> 100	1 to 10 (≈ 2.83 to 28.3 µM)	10 to 100 (≈ 28.3 to 283 µM)	10 to 100 (≈ 28.3 to 283 µM)
CN(C)C(=O)c1ccc(-c2cc3c(cc2F)c2ocnc2c(=O)n3C2CC2)cc1 [Compound 66, 4-(5-cyclopropyl-8-fluoro-4-oxo-oxazolo[4,5-c]quinolin-7-yl)-N,N-dimethyl-benzamide]	> 100	> 100	10 to 100 (≈ 25.5 to 255 µM)	1 to 10 (≈ 2.55 to 25.5 µM)	1 to 10 (≈ 2.55 to 25.5 µM)
Cc1c(-c2ccc3[nH]nnc3c2)ccc2c3ocnc3c(=O)n(C3CC3)c12 [Compound 44, 7-(1H-1,2,3-benzotriazol-5-yl)-5-cyclopropyl-6-methyl-oxazolo[4,5-c]quinolin-4-one]	> 100	> 100	> 100	> 100	> 100
Cc1nc2c(=O)n(C3CC3)c3cc(N4CCC(O)C4)c(F)cc3c2o1 (stereo not drawn) [Compound 53, 5-cyclopropyl-8-fluoro-7-(3-hydroxypyrrolidin-1-yl)-2-methyl-oxazolo[4,5-c]quinolin-4-one]	10 to 100 (≈ 29.1 to 291 µM)	> 100	1 to 10 (≈ 2.91 to 29.1 µM)	10 to 100 (≈ 29.1 to 291 µM)	10 to 100 (≈ 29.1 to 291 µM)
Cc1nc2c(=O)n(C3CC3)c3c(C)c(-c4cnc(N)nc4)ccc3c2o1 [Compound 16, 7-(2-aminopyrimidin-5-yl)-5-cyclopropyl-2,6-dimethyl-oxazolo[4,5-c]quinolin-4-one]	10 to 100 (≈ 28.8 to 288 µM)	10 to 100 (≈ 28.8 to 288 µM)	10 to 100 (≈ 28.8 to 288 µM)	< 1	1 to 10 (≈ 2.88 to 28.8 µM)
Cc1c(-c2cnc(N)cn2)ccc2c3ocnc3c(=O)n(C3CC3)c12 [Compound 6, 7-(5-aminopyrazin-2-yl)-5-cyclopropyl-6-methyl-oxazolo[4,5-c]quinolin-4-one]	> 100	> 100	> 100	10 to 100 (≈ 30 to 300 µM)	10 to 100 (≈ 30 to 300 µM)
CCOC(=O)c1ccc(-c2cc3c(cc2F)c2ocnc2c(=O)n3C2CC2)cc1 [Compound 61, ethyl 4-(5-cyclopropyl-8-fluoro-4-oxo-oxazolo[4,5-c]quinolin-7-yl)benzoate]	> 100	> 100	> 100	> 100	> 100
Cc1nc2c(=O)n(C3CC3)c3cc(-c4cc(F)c(C(N)=O)cc4F)c(F)cc3c2o1 [Compound 78, 4-(5-cyclopropyl-8-fluoro-2-methyl-4-oxo-oxazolo[4,5-c]quinolin-7-yl)-2,5-difluoro-benzamide]	> 100	> 100	10 to 100 (≈ 24.2 to 242 µM)	> 100	> 100
Cc1nc2c(=O)n(C3CC3)c3nc(-c4ccc5[nH]ncc5c4)c(F)cc3c2o1 [Compound 87]	> 100	> 100	10 to 100 (≈ 26.6 to 266 µM)	> 100	10 to 100 (≈ 26.6 to 266 µM)
Cc1c(-c2ccc(C(=O)O)cc2)ccc2c3oc(CN)nc3c(=O)n(C3CC3)c12 [Compound 102, 4-[2-(aminomethyl)-5-cyclopropyl-6-methyl-4-oxo-oxazolo[4,5-c]quinolin-7-yl]benzoic acid]	> 100	> 100	10 to 100 (≈ 25.7 to 257 µM)	1 to 10 (≈ 2.57 to 25.7 µM)	1 to 10 (≈ 2.57 to 25.7 µM)
COc1ccc(-c2cc3c(cc2F)c2ocnc2c(=O)n3C2CC2)cc1 [Compound 63, 5-cyclopropyl-8-fluoro-7-(4-methoxyphenyl)oxazolo[4,5-c]quinolin-4-one]	> 100	> 100	> 100	> 100	> 100
CN(C)C1CCN(c2nc3c(cc2F)c2ocnc2c(=O)n3C2CC2)C1 (stereo not drawn) [Compound 83, 5-cyclopropyl-7-[3-(dimethylamino)pyrrolidin-1-yl]-8-fluoro-oxazolo[4,5-c][1,8]naphthyridin-4-one]	1 to 10 (≈ 2.8 to 28 µM)	> 100	10 to 100 (≈ 28 to 280 µM)	10 to 100 (≈ 28 to 280 µM)	10 to 100 (≈ 28 to 280 µM)
Cc1c(-c2cc(F)c(N)cc2F)ccc2c3oc(=O)[nH]c3c(=O)n(C3CC3)c12 [Compound 3, 7-(4-amino-2,5-difluoro-phenyl)-5-cyclopropyl-6-methyl-3H-oxazolo[4,5-c]quinoline-2,4-dione]	> 100	> 100	1 to 10 (≈ 2.61 to 26.1 µM)	1 to 10 (≈ 2.61 to 26.1 µM)	1 to 10 (≈ 2.61 to 26.1 µM)
CCn1c(=O)c2ncoc2c2cc(F)c(-c3ccc(N)c(F)c3)c(C)c21 [Compound 107, 7-(4-amino-3-fluoro-phenyl)-5-ethyl-8-fluoro-6-methyl-oxazolo[4,5-c]quinolin-4-one]	> 100	> 100	> 100	10 to 100 (≈ 28.1 to 281 µM)	10 to 100 (≈ 28.1 to 281 µM)
CCn1c(=O)c2ncoc2c2cc(F)c(-c3cc(N)c(F)cc3F)c(C)c21 [Compound 105, 7-(5-amino-2,4-difluoro-phenyl)-5-ethyl-8-fluoro-6-methyl-oxazolo[4,5-c]quinolin-4-one]	10 to 100 (≈ 26.8 to 268 µM)	10 to 100 (≈ 26.8 to 268 µM)	10 to 100 (≈ 26.8 to 268 µM)	10 to 100 (≈ 26.8 to 268 µM)	10 to 100 (≈ 26.8 to 268 µM)
